Reference: patent US7276480B1, “Prevention and reduction of blood loss” (Dyax Corp., priority 2005, dated 2007)
No end group written: not given here.

Target: human plasma kallikrein (Homo sapiens, UniProt P03952)
Assay: Affinity (Ki,app) for plasma proteases, Table 1
Type: biochemical

human plasma kallikrein, sequence (P03952 391-638 limits assumed): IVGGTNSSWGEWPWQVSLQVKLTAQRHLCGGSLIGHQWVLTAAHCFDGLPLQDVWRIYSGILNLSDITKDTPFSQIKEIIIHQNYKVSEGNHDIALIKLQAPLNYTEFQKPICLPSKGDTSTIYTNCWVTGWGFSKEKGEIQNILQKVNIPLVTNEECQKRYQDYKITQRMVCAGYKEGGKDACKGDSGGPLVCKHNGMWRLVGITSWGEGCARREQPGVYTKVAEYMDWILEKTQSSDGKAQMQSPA
human plasma kallikrein, sequence (P03952 20-390 limits assumed): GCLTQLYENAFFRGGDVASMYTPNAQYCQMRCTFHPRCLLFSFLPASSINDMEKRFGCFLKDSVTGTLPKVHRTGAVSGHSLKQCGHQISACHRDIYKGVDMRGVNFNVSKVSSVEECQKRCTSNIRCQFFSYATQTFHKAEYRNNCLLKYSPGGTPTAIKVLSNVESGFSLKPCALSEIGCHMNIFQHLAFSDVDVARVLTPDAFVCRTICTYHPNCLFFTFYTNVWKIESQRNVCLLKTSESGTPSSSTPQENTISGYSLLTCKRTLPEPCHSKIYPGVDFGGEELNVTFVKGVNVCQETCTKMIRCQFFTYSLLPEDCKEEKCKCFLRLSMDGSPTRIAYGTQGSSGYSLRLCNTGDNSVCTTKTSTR

Substance	concentration in the plasma required to inhibit 99% of the kallikrein at 1 nM (kallikrein 1 nM, 99% inhibition)	Ki (read-out: Ki,app, human plasma kallikrein) [nM]	specificity among kallikrein and eleven other plasma proteases (from Table 1)	affinity (Ki,app) for kallikrein relative to the affinity of aprotinin (ratio versus aprotinin) [times higher]
aprotinin	at least 3 mu.M	30		
PEP-1: non-naturally occurring KI polypeptide, 60-amino acid sequence of SEQ ID NO:2, recombinant from Pichia pastoris (EAMHSFCAFKADDGPCRAAHPRWFFNIFTRQCEEFIYGGCEGNQNRFESLEECKKMCTRD; ends and bridges not checked; cysteine pairing not given here)			highly specific for human plasma kallikrein	1000
